Measurements taken from ChEMBL document CHEMBL1201862, “PubChem BioAssay data set” (2004).
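48-hour exposure; five concentrations; linearly interpolated endpoints. Abbreviation: GI50, concentration required for 50% inhibition of growth.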 The source made the active and inactive calls. No stated cut-off is given here; in the data, active = GI50 up to about 1.1 µM and inactive = higher.

Assays:
Assay in all cases: inhibition of tumour cell growth, NCI panel, 48 h
[1] = system: SR
[2] = system: KM12
[3] = system: SK-MEL-5
[4] = system: EKVX
[5] = system: NCI-H23
[6] = system: SF-268
[7] = system: M14
[8] = system: SNB-19
[9] = system: HCC 2998
[10] = system: TK-10
[11] = system: UACC-257
[12] = system: HL-60
[13] = system: OVCAR-3
[14] = system: UO-31
[15] = system: NCI/ADR-RES
[16] = system: SF-295
[17] = system: NCI-H522
[18] = system: SN12C
[19] = system: UACC-62
[20] = system: SF-539

| SMILES | GI50 [1] | GI50 [2] | GI50 [3] | GI50 [4] | GI50 [5] | GI50 [6] | GI50 [7] | GI50 [8] | GI50 [9] | GI50 [10] | GI50 [11] | GI50 [12] | GI50 [13] | GI50 [14] | GI50 [15] | GI50 [16] | GI50 [17] | GI50 [18] | GI50 [19] | GI50 [20] |
| --- | --- | --- | --- | --- | --- | --- | --- | --- | --- | --- | --- | --- | --- | --- | --- | --- | --- | --- | --- | --- |
| COc1c2c(c3c(c1CCC(=O)O)OC(C)(C)C=C3)OC(C)(C)C=C2 | > 100 µM (inactive) | > 100 µM (inactive) | 65.2 µM (inactive) | 74.3 µM (inactive) | > 100 µM (inactive) | > 100 µM (inactive) | > 100 µM (inactive) | > 100 µM (inactive) | > 100 µM (inactive) | > 100 µM (inactive) | > 100 µM (inactive) | 50.8 µM (inactive) | 58.7 µM (inactive) | > 100 µM (inactive) | > 100 µM (inactive) | > 100 µM (inactive) | 55.1 µM (inactive) | > 100 µM (inactive) | > 100 µM (inactive) |  |
| N#CI1OC(=O)c2ccccc21 | 23.6 µM (inactive) | > 100 µM (inactive) | > 100 µM (inactive) | > 100 µM (inactive) | > 100 µM (inactive) | > 100 µM (inactive) | > 100 µM (inactive) |  | > 100 µM (inactive) | > 100 µM (inactive) | > 100 µM (inactive) | 59.6 µM (inactive) | > 100 µM (inactive) | > 100 µM (inactive) | > 100 µM (inactive) | > 100 µM (inactive) | 18.2 µM (inactive) | > 100 µM (inactive) | > 100 µM (inactive) | > 100 µM (inactive) |
| O=C(O)CSC1=NC(=O)C2(NN1)c1ccccc1-c1ccccc12 | > 10 µM (inactive) | > 10 µM (inactive) | > 10 µM (inactive) | > 10 µM (inactive) | > 10 µM (inactive) | > 10 µM (inactive) | > 10 µM (inactive) | > 10 µM (inactive) | > 10 µM (inactive) | > 10 µM (inactive) | > 10 µM (inactive) | > 10 µM (inactive) |  | > 10 µM (inactive) | > 10 µM (inactive) | > 10 µM (inactive) | > 10 µM (inactive) | > 10 µM (inactive) | > 10 µM (inactive) | > 10 µM (inactive) |
| O=C1c2ccccc2-n2c1nc1cc(Cl)ccc1c2=O | 6.62 µM (inactive) | 39.9 µM (inactive) | 20 µM (inactive) | > 100 µM (inactive) | 11.8 µM (inactive) | 61.9 µM (inactive) | 15.8 µM (inactive) | > 100 µM (inactive) | > 100 µM (inactive) | > 100 µM (inactive) | 9.68 µM (inactive) |  | 23 µM (inactive) | > 100 µM (inactive) | > 100 µM (inactive) | 50.7 µM (inactive) | 29.9 µM (inactive) | > 100 µM (inactive) | 11.2 µM (inactive) | > 100 µM (inactive) |
| CC1=NN(c2ccccc2Cl)C2(C1)C(Cl)C(=O)N2c1nc2ccccc2s1 (configuration not stated) | 21.1 µM (inactive) | 55.6 µM (inactive) | 32.3 µM (inactive) | > 100 µM (inactive) | 48.4 µM (inactive) | 64.9 µM (inactive) | 52.4 µM (inactive) | 52.7 µM (inactive) | > 100 µM (inactive) | > 100 µM (inactive) | > 100 µM (inactive) | 25.5 µM (inactive) | 17.3 µM (inactive) | 61.8 µM (inactive) | 65 µM (inactive) | 61.8 µM (inactive) | 17.9 µM (inactive) | 31.8 µM (inactive) | 44.6 µM (inactive) |  |
| C=C1CN(Cc2ccccc2)[C@@H]2CCCCC[C@H](C#N)[C@H]12 | > 47.8 µM (inactive) | > 100 µM (inactive) | > 100 µM (inactive) | > 100 µM (inactive) | > 93.1 µM (inactive) | > 100 µM (inactive) | > 100 µM (inactive) | > 100 µM (inactive) | > 100 µM (inactive) | > 100 µM (inactive) | > 100 µM (inactive) |  | > 93.1 µM (inactive) | > 63.4 µM (inactive) | > 77.4 µM (inactive) | > 21.2 µM (inactive) | 65.8 µM (inactive) | > 100 µM (inactive) | > 100 µM (inactive) | > 100 µM (inactive) |
| COC1(OC)N=C(N)C2(C#N)C(c3ccccc3)NC3=C(CCC3)C12C#N (configuration not stated) | > 100 µM (inactive) | > 100 µM (inactive) | > 100 µM (inactive) | > 100 µM (inactive) | > 100 µM (inactive) | > 100 µM (inactive) | > 100 µM (inactive) | > 100 µM (inactive) | > 100 µM (inactive) | > 100 µM (inactive) | > 100 µM (inactive) | > 100 µM (inactive) |  | > 100 µM (inactive) | > 100 µM (inactive) | > 100 µM (inactive) | > 100 µM (inactive) | > 100 µM (inactive) | > 100 µM (inactive) |  |
| Clc1ccc(NCc2nnc(CCCCCCCCc3nnc(CNc4ccc(Cl)cc4)o3)o2)cc1 | > 100 µM (inactive) | > 100 µM (inactive) | > 100 µM (inactive) | > 100 µM (inactive) | > 100 µM (inactive) | > 100 µM (inactive) | > 100 µM (inactive) | > 100 µM (inactive) | > 100 µM (inactive) | > 100 µM (inactive) | > 100 µM (inactive) |  | > 100 µM (inactive) | > 100 µM (inactive) | > 100 µM (inactive) | > 100 µM (inactive) | > 100 µM (inactive) | > 100 µM (inactive) | > 100 µM (inactive) |  |
| O=[N+]([O-])c1ccc2c(c1)Sc1ccccc1N2CCCCCl | > 100 µM (inactive) | > 100 µM (inactive) | > 100 µM (inactive) | > 100 µM (inactive) | > 100 µM (inactive) | > 100 µM (inactive) |  | > 100 µM (inactive) | > 100 µM (inactive) | > 100 µM (inactive) | > 100 µM (inactive) | > 100 µM (inactive) | > 100 µM (inactive) | > 100 µM (inactive) | > 100 µM (inactive) | > 100 µM (inactive) | > 100 µM (inactive) | > 100 µM (inactive) |  | > 100 µM (inactive) |
| CCOC(=O)/C(C#N)=C/Nc1c(C)n(C)n(-c2ccccc2)c1=O | > 100 µM (inactive) | > 100 µM (inactive) | > 100 µM (inactive) | > 100 µM (inactive) | > 100 µM (inactive) |  | > 100 µM (inactive) |  | > 100 µM (inactive) | > 100 µM (inactive) | > 100 µM (inactive) | > 100 µM (inactive) | > 100 µM (inactive) | > 100 µM (inactive) | 47.6 µM (inactive) | > 100 µM (inactive) | > 100 µM (inactive) | > 100 µM (inactive) | > 100 µM (inactive) | > 100 µM (inactive) |
| CCOC(=O)C(C)c1nc2cc(F)c(N3CCOCC3)cc2[nH]c1=O (configuration not stated) | > 100 µM (inactive) | > 100 µM (inactive) | 54.1 µM (inactive) | > 100 µM (inactive) | > 100 µM (inactive) | > 100 µM (inactive) | > 100 µM (inactive) | > 100 µM (inactive) | > 100 µM (inactive) | > 100 µM (inactive) | > 100 µM (inactive) |  | > 100 µM (inactive) | > 100 µM (inactive) | > 100 µM (inactive) | > 100 µM (inactive) | > 100 µM (inactive) | > 100 µM (inactive) | > 100 µM (inactive) | > 100 µM (inactive) |
| O=C1/C(=C/c2ccco2)N=C(c2ccccc2)N1c1cc2cc(Sc3ccccc3)ccc2[nH]1 | 5.18 µM (inactive) |  |  | 15.5 µM (inactive) | > 25 µM (inactive) | > 25 µM (inactive) | 21.6 µM (inactive) | > 25 µM (inactive) |  |  |  | 0.214 µM (active) |  | 18.8 µM (inactive) | 10.2 µM (inactive) |  | 11.6 µM (inactive) | 17.4 µM (inactive) | 21.8 µM (inactive) | 17.9 µM (inactive) |
| CN(C)c1ccc(/C=N/NC(=S)Nc2ccccc2)cc1 | > 100 µM (inactive) | > 100 µM (inactive) | > 100 µM (inactive) | > 100 µM (inactive) | > 100 µM (inactive) | > 100 µM (inactive) | > 100 µM (inactive) | > 100 µM (inactive) |  | > 100 µM (inactive) | > 100 µM (inactive) |  | > 100 µM (inactive) | > 100 µM (inactive) | > 100 µM (inactive) | > 100 µM (inactive) | > 100 µM (inactive) | > 100 µM (inactive) | > 100 µM (inactive) | > 100 µM (inactive) |
| Nc1ccc(-c2nc3ccc(F)cc3s2)cc1I | > 76.2 µM (inactive) | > 100 µM (inactive) | > 74.6 µM (inactive) | > 51.6 µM (inactive) | > 100 µM (inactive) | > 63.8 µM (inactive) | > 100 µM (inactive) | > 61.2 µM (inactive) | 0.121 µM (active) | < 0.01 µM (active) | > 100 µM (inactive) |  |  | > 100 µM (inactive) | > 31 µM (inactive) | > 71 µM (inactive) | > 63.1 µM (inactive) | > 100 µM (inactive) | > 79.6 µM (inactive) | 5.9 µM (inactive) |
| C=C[C@H]1CN2CCc3c([nH]c4c([C@H]5CCCN5C)c(O)ccc34)[C@@H]2C[C@@H]1C[C@H]1c2[nH]c3ccccc3c2CCN1C [STRYCHNOPENTAMINE] | 0.425 µM (active) | 1.36 µM (inactive) |  | 1.75 µM (inactive) | 1.85 µM (inactive) | 1.58 µM (inactive) | 1.47 µM (inactive) | 1.95 µM (inactive) | 0.388 µM (active) | 1.83 µM (inactive) | 1.83 µM (inactive) | 0.267 µM (active) | 1.58 µM (inactive) | 1.71 µM (inactive) | 1.74 µM (inactive) | 1.73 µM (inactive) | 1.79 µM (inactive) | 1.65 µM (inactive) | 1.77 µM (inactive) |  |
